The numbers were not newly measured in patent US9272037B2, “Method to treat premature ejaculation in humans” (priority 2005, dated 2016), which cites them from elsewhere.

Usually half-life stands for how long it takes for the measured level to halve.

Some results are limits rather than exact numbers.

For data set [1] the following is noted: single oral dose of tramadol 100 mg.
Data set [2] addresses μ-opiate receptors (Homo sapiens, UniProt P35372).
Data set [3] has as its system child. Particulars: inadvertent administration of 4 mg/kg to a child.
For data set [4] the following is noted: for accumulation during multiple dose treatment: multiple dose treatment with tramadol.
Data set [5] concerns humans.
In data set [6] the target is phosphodiesterase type 5 (PDE5) (Homo sapiens, UniProt O76074). Particulars: PDE5 versus PDE6.
The conditions of data set [7]: oral, Viagra formulation.

μ-opiate receptors, sequence (P35372 whole entry): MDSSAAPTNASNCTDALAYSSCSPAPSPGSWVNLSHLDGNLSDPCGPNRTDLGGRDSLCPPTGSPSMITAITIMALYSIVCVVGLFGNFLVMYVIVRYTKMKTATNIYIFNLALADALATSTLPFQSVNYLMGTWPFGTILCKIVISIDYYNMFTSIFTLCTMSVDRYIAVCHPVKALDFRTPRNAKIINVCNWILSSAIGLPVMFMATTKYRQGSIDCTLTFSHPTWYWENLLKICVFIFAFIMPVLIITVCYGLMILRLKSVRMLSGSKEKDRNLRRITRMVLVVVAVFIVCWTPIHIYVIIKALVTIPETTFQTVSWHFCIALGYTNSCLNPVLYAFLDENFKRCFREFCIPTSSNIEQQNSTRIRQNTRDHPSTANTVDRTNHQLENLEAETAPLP

On to `COc1cccc(C2(O)CCCCC2CN(C)C)c1` (racemic) [tramadol, (+/−)-trans (RR,SS)-2-[(di-methylamino)methyl]-1-(3-methoxyphenyl)cyclohexanol], for which the “duration of the analgesic effect” value in data set [1] is recorded as “about 6 hours”. Besides, in data set [2] (versus codeine), the “affinity for μ-opiate receptors, fold less than codeine” value is reported as 10 fold. In data set [2] (versus d-propoxyphene), the “affinity for μ-opiate receptors, fold less than d-propoxyphene” value was 100 fold. Also, the “affinity for μ-opiate receptors relative to dextromethorphan” value in data set [2] (versus dextromethorphan) is “equivalent to dextromethorphan”. Also, the “affinity for μ-opiate receptors, fold less than morphine” value in data set [2] (versus morphine) was 6,000 fold. Also, in data set [3], the “adverse event after overdose” value was “seizure activity”. Moreover, the “accumulation during multiple dose treatment” value in data set [4] is reported as “approximately 2 fold”. In addition, the “time to peak serum concentrations” value in data set [4] (oral administration) is at most 2 h.
For the molecule `CN(C)C[C@H]1CCCC[C@]1(O)c1cccc(O)c1` [O-desmethyltramadol (M1), O-desmethyltramadol], in data set [4], the “accumulation during multiple dose treatment” value is reported as “approximately 2 fold”. Besides, the half-life in data set [4] (single oral dose of 100 mg tramadol) is 9 h.
With `Cn1c(=O)c2c(ncn2C)n(C)c1=O` [caffeine, 3,7-dihydro-1,3,7-trimethyl-1H-purine-2,6-dione], the “amount needed to affect sleep significantly” value in data set [5] is “more than 200 mg”. Besides, for the setting “after oral, rectal or parenteral administration”, the “time to maximal plasma concentrations” value was at most 1 h. For the same molecule, the half-life in plasma (in vivo) was 3 to 7 h.
Take `CCCc1nn(C)c2c(=O)[nH]c(-c3cc(S(=O)(=O)N4CCN(C)CC4)ccc3OCC)nc12` [sildenafil, 1-[[3-(6,7-dihydro-1-methyl-7-oxo-3-propyl-1H-pyrazolo[4,3-d]pyrimidin-5-yl)-4-ethoxyphenyl]sulfonyl]-4-methyl piperazine]: the “potency for PDE5 compared to PDE6” value in data set [6] was “about 10 fold”. Further, the absolute bioavailability result in data set [7] was “about 40%”.
